# From the supplement of paper PMC10307832
# Tests used:
# Test in all cases: relative viability (nuclei count vs DMSO), 5 days (fraction); higher = more cells survive
# Carboplatin + Bortezomib = compound: C1CC(C1)(C(=O)O)C(=O)O.[NH2-].[NH2-].[Pt+2] [Carboplatin] + CC(C)C[C@H](NC(=O)[C@H](Cc1ccccc1)NC(=O)c1cnccn1)B(O)O [Bortezomib] (partner 0.002 µM)
# In short: (§1)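 Each reported value is a median over duplicate plates. It expresses relative viability: treated-well nuclei count divided by vehicle-well nuclei count. Lung cancer cell lines in 1536-well plates were dosed by pin tool a day after seeding, alone with one drug or with a fixed anchor-drug dose plus five library-drug doses (not always all listed) in √10 steps, and nuclei were counted after 5 days.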
# GSK126 + Bortezomib = compound: CC[C@H](C)N1C=C(C2=C(C=C(C=C21)C3=CN=C(C=C3)N4CCNCC4)C(=O)NCC5=C(C=C(NC5=O)C)C)C [GSK126] + CC(C)C[C@H](NC(=O)[C@H](Cc1ccccc1)NC(=O)c1cnccn1)B(O)O [Bortezomib] (partner 0.002 µM)
# In short: as §1
# GSK126 + Crizotinib = compound: CC[C@H](C)N1C=C(C2=C(C=C(C=C21)C3=CN=C(C=C3)N4CCNCC4)C(=O)NCC5=C(C=C(NC5=O)C)C)C [GSK126] + C[C@@H](Oc1cc(-c2cnn(C3CCNCC3)c2)cnc1N)c1c(Cl)ccc(F)c1Cl [Crizotinib] (partner 1 µM)
# In short: as §1
# GSK126 + Dasatinib = compound: CC[C@H](C)N1C=C(C2=C(C=C(C=C21)C3=CN=C(C=C3)N4CCNCC4)C(=O)NCC5=C(C=C(NC5=O)C)C)C [GSK126] + Cc1nc(Nc2ncc(C(=O)Nc3c(C)cccc3Cl)s2)cc(N2CCN(CCO)CC2)n1 [Dasatinib] (partner 0.075 µM)
# In short: as §1
Cell Line,relative viability (Carboplatin + Bortezomib; first compound 0.08 µM),relative viability (Carboplatin + Bortezomib; first compound 0.253 µM),relative viability (Carboplatin + Bortezomib; first compound 0.8 µM),relative viability (Carboplatin + Bortezomib; first compound 2.53 µM),relative viability (Carboplatin + Bortezomib; first compound 8 µM),relative viability (GSK126 + Bortezomib; first compound 0.08 µM),relative viability (GSK126 + Bortezomib; first compound 0.253 µM),relative viability (GSK126 + Bortezomib; first compound 0.8 µM),relative viability (GSK126 + Bortezomib; first compound 2.53 µM),relative viability (GSK126 + Bortezomib; first compound 8 µM),relative viability (GSK126 + Crizotinib; first compound 0.08 µM),relative viability (GSK126 + Crizotinib; first compound 0.253 µM),relative viability (GSK126 + Crizotinib; first compound 0.8 µM),relative viability (GSK126 + Crizotinib; first compound 2.53 µM),relative viability (GSK126 + Crizotinib; first compound 8 µM),relative viability (GSK126 + Dasatinib; first compound 0.08 µM),relative viability (GSK126 + Dasatinib; first compound 0.253 µM),relative viability (GSK126 + Dasatinib; first compound 0.8 µM),relative viability (GSK126 + Dasatinib; first compound 2.53 µM),relative viability (GSK126 + Dasatinib; first compound 8 µM)
PC-3 [JPC-3],0.928,0.81,0.748,0.798,0.742,0.823,1.01,0.786,0.817,0.856,0.993,0.997,0.982,0.956,1.02,1.12,0.997,0.997,1.02,0.978
NCI-H2085,1.24,1.2,1.03,1,0.82,1.19,0.998,1.12,1.04,1.05,0.879,0.966,0.951,0.778,0.887,0.248,0.234,0.285,0.287,0.217
EKVX,1.06,1.13,1.01,1.06,0.976,1,1.07,1.08,0.992,1.06,0.899,0.921,0.895,0.978,1.09,0.523,0.309,0.543,0.589,0.508
NCI-H1792,1.06,0.933,0.885,0.844,0.862,0.973,1.02,0.991,0.91,0.948,1.03,1.01,1.03,0.996,0.951,0.829,0.607,0.743,0.608,0.72
NCI-H2405,1.03,1,0.994,0.912,0.89,0.988,0.974,0.985,0.982,0.975,0.947,0.753,0.816,0.817,0.814,0.203,0.207,0.188,0.19,0.189
ABC-1,0.291,0.442,0.354,0.355,0.335,0.319,0.35,0.336,0.309,0.268,1.06,1.16,1.23,1.17,0.937,0.591,0.544,0.678,0.535,0.45
201T,1.18,1.11,1.13,1.14,1.06,1.09,1.12,1.07,1.2,0.959,1.1,1.06,1.03,0.93,1.09,0.558,0.639,0.61,0.607,0.519
NCI-H1755,0.995,1.02,0.992,1.01,0.887,0.979,0.978,1.05,0.839,0.922,0.842,0.915,0.898,0.86,0.765,0.502,0.49,0.405,0.448,0.428
NCI-H647,1.03,1.24,0.952,1.07,0.686,1.06,0.808,1.03,1.07,0.882,1.17,1.04,0.96,1.18,0.986,0.193,0.206,0.171,0.111,0.179
NCI-H1651,0.92,0.967,0.927,0.872,0.761,1.03,0.949,0.981,1.01,0.996,0.907,0.871,0.921,0.871,0.911,0.534,0.427,0.363,0.443,0.45
NCI-H1437,0.526,0.486,0.598,0.453,0.425,0.528,0.504,0.442,0.45,0.518,0.99,0.914,0.879,0.797,0.794,0.392,0.368,0.416,0.441,0.349
NCI-H1975,0.345,0.462,0.462,0.419,0.307,0.509,0.31,0.361,0.392,0.343,0.919,0.91,0.886,0.96,0.949,0.389,0.366,0.375,0.355,0.291
BEN,0.837,0.889,0.988,0.898,0.782,1.11,0.742,0.737,0.885,0.846,0.892,0.87,0.832,0.823,0.671,0.3,0.31,0.295,0.309,0.325
NCI-H441,0.239,0.777,0.618,0.459,0.364,0.445,0.452,0.419,0.507,0.519,0.936,0.732,0.642,0.441,0.86,0.618,0.688,0.458,0.796,0.407
NCI-H3122,1.07,1.02,1.01,0.944,0.96,1.01,1.04,0.994,1.01,1.07,0.251,0.341,0.292,0.267,0.347,0.969,0.728,0.819,0.748,1.2
NCI-H1650,0.221,0.195,0.193,0.198,0.178,0.233,0.25,0.185,0.183,0.19,0.886,1.03,0.917,0.826,0.888,0.349,0.333,0.284,0.281,0.338
NCI-H1355,1.35,1.33,1.18,1.23,1.04,1.27,1.33,1.11,1.17,1.19,1.16,1.14,0.981,1.06,1.02,0.842,0.733,0.705,0.842,0.727
NCI-H1734,0.97,0.885,0.921,0.888,0.849,0.98,0.979,1.02,0.87,0.871,0.676,0.682,0.72,0.689,0.642,0.573,0.505,0.463,0.467,0.449
LXF-289,1.03,0.986,0.98,1.01,0.919,1.04,0.996,1,1.01,1.04,0.821,0.786,0.799,0.739,0.8,0.31,0.223,0.19,0.257,0.358
RERF-LC-KJ,1.22,1.2,1.19,1.18,0.937,1.14,1.23,0.938,1.16,1.07,0.841,0.896,0.826,0.785,0.838,0.883,0.886,0.756,0.717,0.703
NCI-H2087,0.945,0.699,0.781,0.833,0.521,1.02,0.668,0.94,0.941,0.907,0.861,0.985,0.888,0.821,0.867,1.14,0.707,0.856,0.78,0.908
HCC-827,1.18,1.09,1.09,1.02,0.991,1.07,1.09,1.02,1.09,0.965,0.938,0.895,0.934,1.02,0.869,0.333,0.275,0.401,0.396,0.287
NCI-H23,1.1,1.11,1.08,0.861,0.784,1.13,0.96,0.922,1.02,0.95,0.662,0.486,0.485,0.523,0.653,0.884,0.789,0.782,0.858,0.749
HARA,1.06,1.13,1.09,1.01,0.939,1.15,1.14,1.09,1.11,1.05,1.13,0.986,1.01,1.12,0.817,0.3,0.281,0.226,0.262,0.241
HCC-366,1.08,1.05,1.09,0.957,0.685,1.1,1.05,1.03,1.06,1.05,0.652,0.548,0.549,0.475,0.431,0.77,0.654,0.586,0.696,0.591
NCI-H838,1.06,0.858,0.869,0.835,0.82,0.935,0.828,0.662,0.613,0.767,0.798,0.856,0.834,0.772,0.752,0.344,0.308,0.313,0.266,0.209
